As usually defined, the ED50 is the dose that gives a 50% effect, or the effect in half of the subjects. A word on the inhibition in vivo: it is how much of the control response was suppressed.

This passage reports ED50, Activity and inhibition in vivo results from ChEMBL document CHEMBL3243973, “Synthesis and antitussive activity of aminotetra- (and -hexa-) hydrodibenzofurans” (J Med Chem, 1977).

The subject of the first data set is Cavia porcellus. Put plainly: Antitussive activity in po dosed Dunkin-Hartley guinea pig assessed as inhibition of electrically-stimulated vagus nerve-induced cough administered compound prior to electrical stimulation of vagus nerve measured at 20 to 40 mins. The data set is classed as functional.
Conditions: not given
Consider `Cc1cc([N+](=O)[O-])c2c(c1)[C@]1(C)CCC(=O)[C@H](NC(=O)CCN3CCN(C)CC3)[C@@H]1O2`, for which the ED50 is 34 mg/kg.
The same measure, in the same setting: as for `Cc1ccc2c(c1)[C@]1(C)CCC(=O)[C@H](NC(=O)CCCCN(C)C)[C@@H]1O2.Cl`, the figure is 71 mg/kg; as for `COc1ccc2c3c1O[C@H]1[C@@H](O)C=C[C@H]4[C@@H](C2)N(C)CC[C@@]341` [CODEINE], 38.5 mg/kg; as for `Cc1ccc2c(c1)[C@]1(C)CCC(=O)[C@H](NC(=O)CCN3CCN(C)CC3)[C@@H]1O2.Cl`, 32.5 mg/kg.

In another data set the test system is Cavia porcellus. Kind of data set: Toxicity in Dunkin-Hartley guinea pig assessed as effect on central nervous system at 100 mg/kg, po. The data set is classed as organism-based. Also noted: dose 100 mg/kg, route oral. To be noted: in vivo.
On to `Cc1ccc2c(c1)[C@]1(C)CCC(=O)[C@H](NC(=O)CCN3CCN(C)CC3)[C@@H]1O2.Cl`, for which the Activity result is “Non-toxic”.

The subject of another data set is Cavia porcellus. Kind of data set: Toxicity in Dunkin-Hartley guinea pig assessed as effect on cardiovascular system at 100 mg/kg, po. The data set is classed as organism-based. Also noted: dose 100 mg/kg, route oral. To be noted: in vivo.
Consider `Cc1ccc2c(c1)[C@]1(C)CCC(=O)[C@H](NC(=O)CCN3CCN(C)CC3)[C@@H]1O2.Cl`, for which the Activity result is given as “Non-toxic”.

For the next data set, the system named is Cavia porcellus. Put plainly: Antitussive activity in Dunkin-Hartley guinea pig assessed as inhibition of electrically-stimulated vagus nerve-induced cough at 100 mg/kg, po administered compound prior to electrical stimulation of vagus nerve measured at 20 to 40 mins relative to control. The data set is classed as functional.
Conditions: not given
Regarding `Cc1ccc2c(c1)[C@]1(C)CC/C(=N\O)[C@H](NC(=O)CCN3CCN(C)CC3)[C@@H]1O2`, the inhibition in vivo at 100 mg/kg was 55%.
Still for that read-out and setting: as for `Cc1ccc2c(c1)[C@]1(C)CCC3(OCCO3)[C@H](NC(=O)CCN3CCN(C)CC3)[C@@H]1O2`, the figure is 11%; as for `CCN(CC)CCC(=O)N[C@H]1C(=O)CC[C@@]2(C)c3cc(C)ccc3O[C@@H]12`, 33%.
Still for that read-out and setting: with `Cc1cc([N+](=O)[O-])c2c(c1)[C@]1(C)CCC(=O)[C@H](NC(=O)CCN3CCN(C)CC3)[C@@H]1O2` the figure was more than 80%; with `Cc1ccc2c(c1)[C@]1(C)CCC(=O)[C@H](NC(=O)CN3CCCC3)[C@@H]1O2`, 17%.
Take `CCOC(=O)N1CCN(CCC(=O)N[C@H]2C(=O)CC[C@@]3(C)c4cc(C)ccc4O[C@@H]23)CC1`: the inhibition in vivo at 100 mg/kg was found to be 33%.
Consider `Cc1ccc2c(c1)[C@]1(C)CCC(=O)[C@H](NC(=O)CCN(C)CCN(C)C)[C@@H]1O2`, for which the inhibition in vivo at 100 mg/kg was determined as 50%.
Same read-out and setting: as for `Cc1ccc2c(c1)[C@]1(C)CCC(=O)[C@H](N)[C@@H]1O2`, the figure is 33%; as for `Cc1ccc2c(c1)[C@]1(C)C=C(NC(=O)CCN(C)C)C(=O)C[C@@H]1O2`, 58%; as for `CC(=O)N[C@H]1C(=O)CC[C@@]2(C)c3cc(C)ccc3O[C@@H]12`, 25%.
On the same count and under the same terms, with `Cc1ccc2c(c1)[C@]1(C)CCC(=O)[C@H](NC(=O)CCN3CCN(Cc4ccccc4)CC3)[C@@H]1O2` the figure was 33%; with `Cc1ccc2c(c1)[C@]1(C)CCC(O)=C(C(=O)NCCN3CCN(C)CC3)[C@@H]1O2`, 61%; with `Cc1ccc2c(c1)[C@]1(C)CCC(=O)[C@H](NC(=O)CN3CCN(C)CC3)[C@@H]1O2`, 43%.
Same read-out and setting: as for `Cc1ccc2c(c1)[C@]1(C)CCC(=O)[C@H](NC(=O)CCOCCN(C)C)[C@@H]1O2`, the figure is 37%; as for `Cc1ccc2c(c1)[C@]1(C)CCC(=O)[C@H](NC(=O)CCN3CCOCC3)[C@@H]1O2`, 39%.
With `Cc1ccc2c(c1)[C@]1(C)CCC[C@H](NC(=O)CCN3CCN(C)CC3)[C@@H]1O2`, the inhibition in vivo at 100 mg/kg was 46%.
On the same count and under the same terms, as for `CC(=O)c1cc(C)cc2c1O[C@H]1[C@@H](NC(=O)CCN3CCN(C)CC3)C(=O)CC[C@@]21C`, the figure is 42%; as for `Cc1ccc2c(c1)[C@]1(C)CCC(=O)[C@H](NC(=O)CCCCCN(C)C)[C@@H]1O2`, 25%; as for `Cc1ccc2c(c1)[C@]1(C)C=C(NC(=O)Cn3cccc3)C(=O)C[C@@H]1O2`, 42%.
Same read-out and setting: with `Cc1ccc2c(c1)[C@]1(C)CCC(O)[C@H](NCCCN3CCN(C)CC3)[C@@H]1O2` (stereo partly drawn) the figure was 62%; with `Cc1ccc2c(c1)[C@]1(C)C=C(NC(=O)CN3CCCCC3)C(=O)C[C@@H]1O2`, 17%; with `Cc1ccc2c(c1)[C@]1(C)CCC(=O)[C@H](NC(=O)CCN3CCCCC3)[C@@H]1O2`, 46%.
Still for that read-out and setting: as for `Cc1ccc2c(c1)[C@]1(C)CCC(=O)[C@H](NC(=O)CCN3CCCC3)[C@@H]1O2`, the figure is 44%; as for `Cc1ccc2c(c1)[C@]1(C)CCC(=O)[C@H](NC(=O)OCCN3CCN(C)CC3)[C@@H]1O2`, 33%.
Consider `Cc1ccc2c(c1)[C@]1(C)C=C(NC(=O)CCN3CCN(C)CC3)C(=O)C[C@@H]1O2`, for which the inhibition in vivo at 100 mg/kg worked out at 25%.
Still for that read-out and setting: with `Cc1ccc2c(c1)[C@]1(C)CCC(=O)[C@H](NC(=O)CCCCN(C)C)[C@@H]1O2.Cl` the figure was more than 80%.
The same measure, in the same setting: with `Cc1ccc2c(c1)[C@]1(C)CC(NC(=O)CCN3CCN(C)CC3)C(=O)C[C@@H]1O2` (stereo partly drawn) the figure was 12.5%.
Still for that read-out and setting: with `Cc1ccc2c(c1)[C@]1(C)CCC(=O)[C@H](NC(=O)CCN3CCN(CCO)CC3)[C@@H]1O2` the figure was 17%; with `Cc1ccc2c(c1)[C@]1(C)CCC(=O)[C@H](NC(=O)CCN3CCNCC3)[C@@H]1O2`, 75%; with `Cc1ccc2c(c1)[C@]1(C)C=C(NC(=O)CN3CCOCC3)C(O)C[C@@H]1O2` (stereo partly drawn), 29%.
With `CCN1CCN(CCC(=O)N[C@H]2C(=O)CC[C@@]3(C)c4cc(C)ccc4O[C@@H]23)CC1`, the inhibition in vivo at 100 mg/kg is 8%.
Consider `Cc1ccc2c(c1)[C@]1(C)CCC(=O)[C@H](NC(=O)CCCN3CCN(C)CC3)[C@@H]1O2`, for which the inhibition in vivo at 100 mg/kg came out at 72%.
Same read-out and setting: as for `Cc1ccc2c(c1)[C@]1(C)CCC3(SCCS3)[C@H](NC(=O)CCN3CCN(C)CC3)[C@@H]1O2`, the figure is 46%; as for `Cc1ccc2c(c1)[C@]1(C)C=C(NC(=O)CN(C)C)C(=O)C[C@@H]1O2`, 33%; as for `CC(=O)c1cc(C)cc(C2(C)C=C(NC(=O)CCN3CCN(C)CC3)C(=O)CC2)c1O` (stereo not drawn), 22%.
On the same count and under the same terms, with `COc1ccc2c3c1O[C@H]1[C@@H](O)C=C[C@H]4[C@@H](C2)N(C)CC[C@@]341` [CODEINE] the figure was more than 80%; with `Cc1ccc2c(c1)[C@]1(C)CCC(=O)[C@H](NC(=O)CCN3CCN(C)CC3)[C@@H]1O2.Cl`, more than 80%.
On the same count and under the same terms, with `Cc1ccc2c(c1)[C@]1(C)CCC(=O)[C@H](NC(=O)CCN3CCN(c4ccccc4)CC3)[C@@H]1O2` the figure was 54%; with `CCN(CC(=O)N[C@H]1C(=O)CC[C@@]2(C)c3cc(C)ccc3O[C@@H]12)Cc1ccccc1`, 9%.
Turning to `Cc1ccc2c(c1)[C@]1(C)CC/C(=N\NC(N)=O)[C@H](NC(=O)CCN3CCN(C)CC3)[C@@H]1O2`, the inhibition in vivo at 100 mg/kg stood at 25%.
Same read-out and setting: as for `CC(=O)N1CCN(CCC(=O)N[C@H]2C(=O)CC[C@@]3(C)c4cc(C)ccc4O[C@@H]23)CC1`, the figure is 33%; as for `Cc1ccc2c(c1)[C@]1(C)CCC(=O)[C@H](NC(=O)CCN(C)C)[C@@H]1O2`, 79%; as for `Cc1ccc2c(c1)[C@]1(C)CCC(=O)[C@H](NC(=O)CCCN(C)C)[C@@H]1O2`, 67%.
Still for that read-out and setting: with `Cc1ccc2c(c1)[C@]1(C)C=C(C(=O)NCCN3CCN(C)CC3)C(=O)C[C@@H]1O2` the figure was 62.5%; with `Cc1ccc2c(c1)[C@]1(C)CCC(O)[C@H](NC(=O)CCN3CCN(C)CC3)[C@@H]1O2` (stereo partly drawn), 12%; with `Cc1ccc2c(c1)[C@]1(C)C=C(NC(=O)CN3CCOCC3)C(=O)C[C@@H]1O2`, 31%.

The test system of another data set is Cavia porcellus. Kind of data set: Toxicity in Dunkin-Hartley guinea pig assessed as gastrointestinal effect at 100 mg/kg, po. Type of data set: organism-based. Also noted: dose 100 mg/kg, route oral. To be noted: in vivo.
Regarding `Cc1ccc2c(c1)[C@]1(C)CCC(=O)[C@H](NC(=O)CCN3CCN(C)CC3)[C@@H]1O2.Cl`, the Activity entry was “Non-toxic”.
